Non-standard residues stand in square brackets, D forms with d. No end group written: not given here. *: point of attachment. Myristoyl = CCCCCCCCCCCCCC(=O)*; 12Ado = NCCCCCCCCCCCC(=O)O; Ac6c = NC1(C(=O)O)CCCCC1; Nle = CCCC[C@H](N)C(=O)O; Orn = NCCC[C@H](N)C(=O)O; Ac5c = NC1(C(=O)O)CCCC1; Aib = CC(C)(N)C(=O)O
Legend:
[1] = Human plasma half-life assay; assay type: in vitro ADME; settings: 37° C., LC-MS, read-out: Human Plasma T½ (converted)
Experimental: (§1) B. Human and Rat Plasma Half-Life Assay
(§2) 50 μL was removed at various times, like at 0, 1, 2, 3, 4, 8, 24, 32, 48, 56, 72 hours, mixed with 5 μL formic acid and 150 μL acetonitrile in a microcentrifuge tube, vertexed, and centrifuged for 10 minutes at 10K rpm. The supernatant was transferred to an injection vial and analyzed by LC-MS. The LC-MS system consisted of an API4000 mass spectrometer with an ESI probe. Positive ion mode and full scan detection were used. HPLC separation was carried out on a Luna 3μ C8 (2), 2×30 mm column with a gradient from 90% A to 90% B in 10 minutes at a flow rate of 0.3 ml/min. Buffer A was 1% formic acid in water and buffer B was 1% formic acid acetonitrile.

[2] = Rat plasma half-life assay; assay type: in vitro ADME; settings: 37° C., LC-MS, read-out: Rat Plasma T½ (converted)
Experimental: as §1, §2

Row | Compound | half-life at 0.1 mg/ml [1] | half-life at 0.1 mg/ml [2]
1 | YAEGTFISDYSI[Aib]MDKIHQQDFVNWLLAQKGKKNDWKHNITQW-OH [Example 12, (Aib^13, Trp^43)hGIP(1-43)-OH] | 414 min | 126 min
2 | YAEGTFISDY[Ac5c]IAMDKIHQQDFVNWLLAQKGKKNDWKHNITQ[12Ado]-OH [Example 13, (A5c^11, Ado^43)hGIP(1-43)-OH] | 786 min | 1130 min
3 | H-YAEGTF[Ac6c]SDYSIAMDKIHQQDFVNWLLAQKGKKN[Orn](Myristoyl)WKHNITQ-OH [Example 18, [A6c^7, Orn^35(N—C(O)—(CH2)12—CH3)]hGIP(1-42)-OH] | 438 min | 1000 min
4 | YAEGTF[Ac6c]SDYSIA[Nle]DKIHQQDFVNWLLAQKGKKNDWKHNI[Ac6c]Q-OH [Example 17, (A6c^7, 41, Nle^14)hGIP(1-42)-OH] | 378 min | 114 min
5 | YAEGTFISDY[Ac5c]IAMDKIHQQDFVNWLLAQKGKKNDWKHNITQT-OH [Example 10, (A5c^11, Thr^43)hGIP(1-43)-OH] | 474 min | 126 min
6 | CC[C@H](C)[C@H](NC(=O)[C@H](CCCCN)NC(=O)[C@H](CC(=O)O)NC(=O)[C@H](CCSC)NC(=O)[C@H](C)NC(=O)[C@@H](NC(=O)C1(NC(=O)[C@H](Cc2ccc(O)cc2)NC(=O)[C@H](CC(=O)O)NC(=O)[C@H](CO)NC(=O)[C@@H](NC(=O)[C@H](Cc2ccccc2)NC(=O)[C@@H](NC(=O)CNC(=O)[C@H](CCC(=O)O)NC(=O)[C@H](C)NC(=O)[C@@H](N)Cc2ccc(O)cc2)[C@@H](C)O)[C@@H](C)CC)CCCC1)[C@@H](C)CC)C(=O)N[C@@H](Cc1c[nH]cn1)C(=O)N[C@@H](CCC(N)=O)C(=O)N[C@@H](CCC(N)=O)C(=O)N[C@@H](CC(=O)O)C(=O)N[C@@H](Cc1ccccc1)C(=O)N[C@H](C(=O)N[C@@H](CC(N)=O)C(=O)N[C@@H](Cc1c[nH]c2ccccc12)C(=O)N[C@@H](CC(C)C)C(=O)N[C@@H](CC(C)C)C(=O)N[C@@H](C)C(=O)N[C@@H](CCC(N)=O)C(=O)N[C@@H](CCCCN)C(=O)NCC(=O)N[C@@H](CCCCN)C(=O)N[C@@H](CS)C(=O)N[C@@H](CC(N)=O)C(=O)N[C@@H](CC(=O)O)C(=O)N[C@@H](Cc1c[nH]c2ccccc12)C(=O)N[C@@H](CCCCN)C(=O)N[C@@H](Cc1c[nH]cn1)C(=O)N[C@@H](CC(N)=O)C(=O)N[C@H](C(=O)NC1(C(=O)N[C@@H](CCC(N)=O)C(N)=O)CCCC1)[C@@H](C)CC)C(C)C [Example 32, (A5c^11, 41, Cys^33)hGIP(1-42)-NH2] | 690 min | 528 min
7 | YAEGTF[Ac6c]SDYSIAMDKIHQQDFVNWLLAQKGKKNDWKHNI[Ac6c]Q-OH [Example 16, (A6c^7, 41)hGIP(1-42)-OH] | 390 min | 78 min
8 | CCCCCCCCCCCCCCCC(=O)NCCC[C@H](NC(=O)CNC(=O)[C@H](CCCCN)NC(=O)[C@H](CCC(N)=O)NC(=O)[C@H](C)NC(=O)[C@H](CC(C)C)NC(=O)[C@H](CC(C)C)NC(=O)[C@H](Cc1c[nH]c2ccccc12)NC(=O)[C@H](CC(N)=O)NC(=O)[C@@H](NC(=O)[C@H](Cc1ccccc1)NC(=O)[C@H](CC(=O)O)NC(=O)[C@H](CCC(N)=O)NC(=O)[C@H](CCC(N)=O)NC(=O)[C@H](Cc1c[nH]cn1)NC(=O)[C@@H](NC(=O)[C@H](CCCCN)NC(=O)[C@H](CC(=O)O)NC(=O)[C@H](CCSC)NC(=O)[C@H](C)NC(=O)[C@@H](NC(=O)C1(NC(=O)[C@H](Cc2ccc(O)cc2)NC(=O)[C@H](CC(=O)O)NC(=O)[C@H](CO)NC(=O)[C@@H](NC(=O)[C@H](Cc2ccccc2)NC(=O)[C@@H](NC(=O)CNC(=O)[C@H](CCC(=O)O)NC(=O)[C@H](C)NC(=O)[C@@H](N)Cc2ccc(O)cc2)[C@@H](C)O)[C@@H](C)CC)CCCC1)[C@@H](C)CC)[C@@H](C)CC)C(C)C)C(=O)N[C@@H](CCCCN)C(=O)N[C@@H](CC(N)=O)C(=O)N[C@@H](CC(=O)O)C(=O)N[C@@H](Cc1c[nH]c2ccccc12)C(=O)N[C@@H](CCCCN)C(=O)N[C@@H](Cc1c[nH]cn1)C(=O)N[C@@H](CC(N)=O)C(=O)N[C@H](C(=O)N[C@H](C(=O)N[C@@H](CCC(N)=O)C(=O)N[C@@H](Cc1c[nH]cn1)C(=O)O)[C@@H](C)O)[C@@H](C)CC [Example 41, [A5c^11, Orn^32(N—C(O)—(CH2)14—CH3), His^43]hGIP(1-43)-OH] | 396 min | 1370 min
9 | YAEGTFISDY[Ac6c]IA[Ac6c]DKIHQQDFVNWLLAQKGKKNDWKHNI[Ac6c]Q-OH [Example 11, (A6c^11, 14, 41)hGIP(1-42)-OH] | 786 min | 516 min
10 | CCCC[C@H](NC(=O)[C@H](C)NC(=O)[C@@H](NC(=O)C1(NC(=O)[C@H](Cc2ccc(O)cc2)NC(=O)[C@H](CC(=O)O)NC(=O)[C@H](CO)NC(=O)[C@@H](NC(=O)[C@H](Cc2ccccc2)NC(=O)[C@@H](NC(=O)CNC(=O)[C@H](CCC(=O)O)NC(=O)[C@H](C)NC(=O)[C@@H](N)Cc2ccc(O)cc2)[C@@H](C)O)[C@@H](C)CC)CCCC1)[C@@H](C)CC)C(=O)N[C@@H](CC(=O)O)C(=O)N[C@@H](CCCCN)C(=O)N[C@H](C(=O)N[C@@H](Cc1c[nH]cn1)C(=O)N[C@@H](CCC(N)=O)C(=O)N[C@@H](CCC(N)=O)C(=O)N[C@@H](CC(=O)O)C(=O)N[C@@H](Cc1ccccc1)C(=O)N[C@H](C(=O)N[C@@H](CC(N)=O)C(=O)N[C@@H](Cc1c[nH]c2ccccc12)C(=O)N[C@@H](CC(C)C)C(=O)N[C@@H](CC(C)C)C(=O)N[C@@H](C)C(=O)N[C@@H](CCC(N)=O)C(=O)N[C@@H](CCCCN)C(=O)NCC(=O)N[C@@H](CCCCN)C(=O)N[C@@H](CCCCN)C(=O)N[C@@H](CC(N)=O)C(=O)N[C@@H](CC(=O)O)C(=O)N[C@@H](Cc1c[nH]c2ccccc12)C(=O)N[C@@H](CCCCN)C(=O)N[C@@H](Cc1c[nH]cn1)C(=O)N[C@@H](CC(N)=O)C(=O)N[C@H](C(=O)N[C@H](C(=O)N[C@@H](CCC(N)=O)C(=O)N[C@@H](Cc1c[nH]cn1)C(=O)O)[C@@H](C)O)[C@@H](C)CC)C(C)C)[C@@H](C)CC [Example 21, (A5c^11, Nle^14, His^43)hGIP(1-43)-OH] | 666 min | 168 min

From patent US9072703B2 (Ipsen Pharma S.A.S., priority 2008, dated 2015)
